Measurements published in paper PMC8837544, “Pharmacological inhibition of MERTK induces in vivo retinal degeneration: a multimodal imaging ocular safety assessment” (Archives of Toxicology, 2022).
In brackets after ≈: the same amount, converted by molar mass. Several values for one entry are separate records, joined by “and”; a condition that tells them apart may be missing. Identical values can stand only once. Blank lines part the entries; values can stand above or below the compound they belong to.

Experiments:
[1] = target: T1, Axl (Homo sapiens, UniProt P30530)
T1 sequence (P30530 26-894): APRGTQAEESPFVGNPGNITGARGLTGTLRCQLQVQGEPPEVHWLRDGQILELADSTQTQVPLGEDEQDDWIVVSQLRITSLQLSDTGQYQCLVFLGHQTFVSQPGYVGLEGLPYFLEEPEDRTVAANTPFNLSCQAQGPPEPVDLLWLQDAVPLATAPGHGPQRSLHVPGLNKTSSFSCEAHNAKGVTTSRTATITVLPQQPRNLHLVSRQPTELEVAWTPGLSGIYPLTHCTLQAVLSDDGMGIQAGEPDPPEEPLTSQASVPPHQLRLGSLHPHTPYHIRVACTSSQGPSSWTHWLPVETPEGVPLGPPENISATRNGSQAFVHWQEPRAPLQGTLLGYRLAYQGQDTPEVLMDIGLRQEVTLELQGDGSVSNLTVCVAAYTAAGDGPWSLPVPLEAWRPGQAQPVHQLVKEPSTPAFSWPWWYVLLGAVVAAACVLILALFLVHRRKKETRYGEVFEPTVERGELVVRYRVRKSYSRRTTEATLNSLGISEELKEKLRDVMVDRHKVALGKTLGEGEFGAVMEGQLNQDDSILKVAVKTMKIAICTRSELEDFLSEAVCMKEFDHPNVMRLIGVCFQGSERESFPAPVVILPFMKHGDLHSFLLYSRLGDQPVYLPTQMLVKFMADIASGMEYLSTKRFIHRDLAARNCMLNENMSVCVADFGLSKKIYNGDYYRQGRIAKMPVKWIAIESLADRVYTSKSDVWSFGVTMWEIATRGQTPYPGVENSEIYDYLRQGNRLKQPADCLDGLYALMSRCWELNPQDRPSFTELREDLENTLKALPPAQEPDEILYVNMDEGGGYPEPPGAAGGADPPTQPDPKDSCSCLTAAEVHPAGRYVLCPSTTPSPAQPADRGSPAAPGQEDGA
Description: (§1) Biochemical assays for Mer, Axl, Tyro3 and Flt3 were performed using a Rapidfire LCMS method as previously described (Nissink et al. [2021]). Cellular assays for pMer, pAxl, pTyro3, pFLT3 were performed in transiently transfected Cos-7 (Monkey: African green) cell lines as previously described. The macrophage efferocytosis assay was performed as previously described (Clark et al. [2019]).

[2] = target: Flt3 (Homo sapiens, UniProt P36888)
Sequence of Flt3 (P36888 27-993): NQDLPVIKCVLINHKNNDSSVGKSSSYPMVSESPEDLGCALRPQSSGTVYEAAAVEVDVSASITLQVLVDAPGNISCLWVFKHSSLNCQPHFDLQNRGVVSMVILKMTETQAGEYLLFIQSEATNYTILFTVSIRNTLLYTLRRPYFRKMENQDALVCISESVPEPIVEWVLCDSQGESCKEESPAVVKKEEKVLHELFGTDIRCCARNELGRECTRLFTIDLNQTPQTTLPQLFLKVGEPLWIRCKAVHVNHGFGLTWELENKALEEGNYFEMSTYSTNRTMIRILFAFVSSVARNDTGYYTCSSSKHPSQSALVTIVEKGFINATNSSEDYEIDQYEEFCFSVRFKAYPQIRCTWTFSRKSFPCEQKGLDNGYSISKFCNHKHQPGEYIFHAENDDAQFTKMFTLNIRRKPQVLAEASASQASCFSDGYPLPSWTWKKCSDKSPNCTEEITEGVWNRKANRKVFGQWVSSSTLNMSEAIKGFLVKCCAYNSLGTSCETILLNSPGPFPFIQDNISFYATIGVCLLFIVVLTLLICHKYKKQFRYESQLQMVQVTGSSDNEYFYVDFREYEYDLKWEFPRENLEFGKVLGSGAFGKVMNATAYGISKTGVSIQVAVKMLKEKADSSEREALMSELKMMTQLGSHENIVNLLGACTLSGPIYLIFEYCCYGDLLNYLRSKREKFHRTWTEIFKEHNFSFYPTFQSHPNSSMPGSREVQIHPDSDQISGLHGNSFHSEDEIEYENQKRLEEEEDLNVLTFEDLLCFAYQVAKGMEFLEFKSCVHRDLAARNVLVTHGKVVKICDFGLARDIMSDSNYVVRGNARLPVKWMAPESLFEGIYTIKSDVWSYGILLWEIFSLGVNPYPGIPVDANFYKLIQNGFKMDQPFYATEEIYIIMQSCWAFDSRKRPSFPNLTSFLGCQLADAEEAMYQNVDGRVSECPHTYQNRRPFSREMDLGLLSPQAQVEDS
Description: as §1

[3] = target: Mer (Homo sapiens, UniProt Q12866)
Sequence of Mer (Q12866 21-999): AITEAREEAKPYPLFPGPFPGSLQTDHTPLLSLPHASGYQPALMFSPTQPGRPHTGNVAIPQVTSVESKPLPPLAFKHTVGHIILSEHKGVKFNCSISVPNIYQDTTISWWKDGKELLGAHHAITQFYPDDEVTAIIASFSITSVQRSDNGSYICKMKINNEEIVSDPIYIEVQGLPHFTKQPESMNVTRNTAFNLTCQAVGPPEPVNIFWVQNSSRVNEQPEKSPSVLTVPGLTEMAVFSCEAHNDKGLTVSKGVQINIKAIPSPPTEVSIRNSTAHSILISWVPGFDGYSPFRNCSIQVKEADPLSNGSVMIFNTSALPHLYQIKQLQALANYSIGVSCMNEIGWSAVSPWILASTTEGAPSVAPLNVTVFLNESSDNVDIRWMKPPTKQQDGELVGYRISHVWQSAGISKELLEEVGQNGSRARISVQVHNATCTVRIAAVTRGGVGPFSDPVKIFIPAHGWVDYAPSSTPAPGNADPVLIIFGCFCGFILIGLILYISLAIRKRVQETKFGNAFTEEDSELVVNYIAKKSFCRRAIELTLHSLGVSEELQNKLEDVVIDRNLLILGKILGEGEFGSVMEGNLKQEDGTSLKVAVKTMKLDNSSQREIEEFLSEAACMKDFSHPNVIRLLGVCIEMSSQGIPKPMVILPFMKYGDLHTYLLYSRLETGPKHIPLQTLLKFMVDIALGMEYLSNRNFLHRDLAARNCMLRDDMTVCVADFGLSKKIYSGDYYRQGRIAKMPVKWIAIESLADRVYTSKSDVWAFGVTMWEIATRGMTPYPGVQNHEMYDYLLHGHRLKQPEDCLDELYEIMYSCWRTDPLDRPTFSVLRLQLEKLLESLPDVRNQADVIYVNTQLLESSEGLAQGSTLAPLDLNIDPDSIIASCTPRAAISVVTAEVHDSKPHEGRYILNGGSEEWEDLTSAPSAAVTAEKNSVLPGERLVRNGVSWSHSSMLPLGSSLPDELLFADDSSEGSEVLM
Description: as §1

[4] = tested on: macrophage efferocytosis; experiment: Macrophage efferocytosis assay; format: cell-based
[5] = LogD7.4; format: physicochemical; conditions: pH 7.4
[6] = Solubility; format: physicochemical
[7] = Human plasma protein binding; format: in vitro ADME
[8] = Mouse plasma protein binding; format: in vitro ADME
[9] = HLM intrinsic clearance; format: in vitro ADME, human
[10] = CaCo2 permeability and efflux; format: in vitro ADME
[11] = Mouse pharmacokinetics; format: in vivo
[12] = 200 mg/kg BID, C57BL/6 J mice, 28 days
Description: (§2) All in vivo experimental procedures were conducted in accordance with United Kingdom legislation (Animals (Scientific Procedures) Act, 1986) and were compliant with the ARRIVE guidelines. 6–7-week-old female (20–25 g) C57BL/6 J mice (Charles River Laboratories Ltd, UK) were acclimatized to the facility for 10 days and then randomized to groups based on bodyweight; vehicle control (n = 6, animals 1–6) and MERTK inhibitor treatment (n = 9, animals 7–15). Animals were treated via oral gavage with vehicle control (60% v/v 0.1 M HCl, 20% v/v PEG 400, 20% v/v purified water pH 3.5–4.5) or AZ14145845 (200 mg/kg). All animals were dosed twice daily with a dose volume of 10 mL/kg for 28 days, with the final dose being administered on the morning of Day 29. The dose interval between the first and second dose on each day was 8 h. […] Samples for histopathology were taken from 6 controls (animals 1–6), 8 treated animals (animals 7–11, 13–15) and for electron microscopy from 1 control (animal no. 1) and 3 treated animals (animals 8–10) and for MSI from 3 treated animals (animals 13–15).
A whole blood sample (32 µL) was collected via a tail vein prick into a K2-EDTA treated capillary tube, centrifuged at 1500g for 10 min at 4 °C, and plasma collected using a micropipette (non-EDTA Ref.no. 172292, Vitrex Medical A/S, Denmark). Samples were collected on Day 1 at 30 min, 2-h, 8-h (pre-second dose) and 24-h post the first dose. On days 7, 28, 29 samples were collected at 2-h post the first dose and at 8-h pre the second dose.

[13] = Bodyweight and tolerability in 28 day mouse safety study; conditions: day 5 onwards, remainder of the study
Description: as §2

[14] = Ocular exposure in the rat (melanin binding); format: in vivo; conditions: for eye partition coefficient (Kp): iv infusion 2 μmol/kg/h, 4-h post infusion
Description: Male pigmented Long Evans and non-pigmented Han Wistar rats were treated via intravenous infusion of AZ14145845 at a dose of 2 μmol/kg/h in a TEG:DMA:H2O (1:1:1) formulation, dose volume 4 mL/kg. At 4-h post the 15-min intravenous infusion, the animals were killed and the eyes extracted and homogenized to determine the concentration of AZ14145845 in the eye.

[15] = tested on: retina; experiment: Retinal histopathology (H&E light microscopy) in 28 day mouse safety study; format: in vivo, C57BL/6 J mice
[16] = tested on: retina; conditions: mouse, in vivo
Description: as §2

[17] = MALDI mass spectrometry imaging of whole eye sections (quantitative MSI); format: in vivo, C57BL/6 J mice
Description: as §2

[18] = tested on: ARPE19, human retinal epithelial cells; experiment: Phagocytosis of photoreceptor outer segments (POS) in human retinal cells; format: cell-based; conditions: 3 μM, 6-h incubation, FITC-labeled POS
Description: ARPE19, human retinal epithelial cells, were cultured in Dulbecco’s modified Eagle’s medium (DMEM/F12, supplemented with 10% fetal bovine serum). All culture materials were purchased from Thermo Fisher Scientific. Cells were seeded at 10,000 cells per well in CellCarrier imaging plates (Perkin Elmer) and cultured for up to 6 weeks to allow for polarization of the cell layer. On the day of treatment cells were washed three times in PBS and then incubated in serum free conditions with FITC-labeled POS at a concentration of 10 POS/cell and either DMSO or 3 μM of AZ14145845 in DMSO. Following incubation for 6 h, cells were washed with PBS to remove non-internalized POS and fixed in 4% PFA. Following staining of nuclei with Hoechst, cells were imaged using a […] ImageExpress Confocal microscope. Each well was imaged at 20 × with 16 images taken per well. Analysis modules were written using the custom module editor of MetaXpress vers 6.5.4.532. Nuclei were segmented and enumerated using the embedded count nuclei module. Individual POS particles were segmented and counted on a per image basis using the same custom module. Data are expressed as fold change in total POS per cell over control. Experiments were carried out a minimum of 3 times.

[19] = target: hERG (Homo sapiens, UniProt Q12809); conditions: read-out: hERG
Sequence of hERG (Q12809 whole entry): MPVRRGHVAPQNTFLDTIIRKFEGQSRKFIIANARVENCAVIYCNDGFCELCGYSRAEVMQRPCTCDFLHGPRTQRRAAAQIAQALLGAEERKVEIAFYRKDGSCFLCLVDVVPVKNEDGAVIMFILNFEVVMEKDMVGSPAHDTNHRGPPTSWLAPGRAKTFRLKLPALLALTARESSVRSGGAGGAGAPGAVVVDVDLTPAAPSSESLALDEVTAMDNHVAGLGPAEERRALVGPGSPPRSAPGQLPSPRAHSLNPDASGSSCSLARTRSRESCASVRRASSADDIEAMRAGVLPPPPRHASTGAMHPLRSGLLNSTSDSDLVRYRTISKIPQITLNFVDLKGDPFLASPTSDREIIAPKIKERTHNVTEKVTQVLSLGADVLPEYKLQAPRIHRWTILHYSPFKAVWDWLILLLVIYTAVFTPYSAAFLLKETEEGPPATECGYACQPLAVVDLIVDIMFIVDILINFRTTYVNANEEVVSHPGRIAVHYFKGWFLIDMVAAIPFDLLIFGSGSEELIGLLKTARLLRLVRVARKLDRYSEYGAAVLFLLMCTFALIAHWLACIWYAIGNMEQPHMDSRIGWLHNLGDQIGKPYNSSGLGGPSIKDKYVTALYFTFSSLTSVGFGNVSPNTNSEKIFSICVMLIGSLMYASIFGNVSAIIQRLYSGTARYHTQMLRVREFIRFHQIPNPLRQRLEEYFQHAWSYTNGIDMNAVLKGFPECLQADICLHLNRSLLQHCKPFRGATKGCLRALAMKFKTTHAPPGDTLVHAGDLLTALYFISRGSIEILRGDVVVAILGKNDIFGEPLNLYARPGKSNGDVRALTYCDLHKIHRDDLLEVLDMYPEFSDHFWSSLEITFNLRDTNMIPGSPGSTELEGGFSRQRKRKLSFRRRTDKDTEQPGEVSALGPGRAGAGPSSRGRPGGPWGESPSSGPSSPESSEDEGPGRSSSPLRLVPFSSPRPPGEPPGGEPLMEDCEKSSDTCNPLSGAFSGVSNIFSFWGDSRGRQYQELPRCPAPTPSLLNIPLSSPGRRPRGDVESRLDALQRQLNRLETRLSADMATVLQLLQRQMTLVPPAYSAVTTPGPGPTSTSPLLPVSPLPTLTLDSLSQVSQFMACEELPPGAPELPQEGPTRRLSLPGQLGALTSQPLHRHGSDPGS

[20] = target: MERTK (Homo sapiens, UniProt Q12866); conditions: 1 μM
Sequence of MERTK (Q12866 21-999): as the sequence (Q12866 21-999) above

[21] = target: T1, Axl; conditions: 1 μM
[22] = target: MAP4K5 (KHS1) (Homo sapiens, UniProt Q9Y4K4); conditions: 1 μM
Sequence of MAP4K5 (KHS1) (Q9Y4K4 whole entry): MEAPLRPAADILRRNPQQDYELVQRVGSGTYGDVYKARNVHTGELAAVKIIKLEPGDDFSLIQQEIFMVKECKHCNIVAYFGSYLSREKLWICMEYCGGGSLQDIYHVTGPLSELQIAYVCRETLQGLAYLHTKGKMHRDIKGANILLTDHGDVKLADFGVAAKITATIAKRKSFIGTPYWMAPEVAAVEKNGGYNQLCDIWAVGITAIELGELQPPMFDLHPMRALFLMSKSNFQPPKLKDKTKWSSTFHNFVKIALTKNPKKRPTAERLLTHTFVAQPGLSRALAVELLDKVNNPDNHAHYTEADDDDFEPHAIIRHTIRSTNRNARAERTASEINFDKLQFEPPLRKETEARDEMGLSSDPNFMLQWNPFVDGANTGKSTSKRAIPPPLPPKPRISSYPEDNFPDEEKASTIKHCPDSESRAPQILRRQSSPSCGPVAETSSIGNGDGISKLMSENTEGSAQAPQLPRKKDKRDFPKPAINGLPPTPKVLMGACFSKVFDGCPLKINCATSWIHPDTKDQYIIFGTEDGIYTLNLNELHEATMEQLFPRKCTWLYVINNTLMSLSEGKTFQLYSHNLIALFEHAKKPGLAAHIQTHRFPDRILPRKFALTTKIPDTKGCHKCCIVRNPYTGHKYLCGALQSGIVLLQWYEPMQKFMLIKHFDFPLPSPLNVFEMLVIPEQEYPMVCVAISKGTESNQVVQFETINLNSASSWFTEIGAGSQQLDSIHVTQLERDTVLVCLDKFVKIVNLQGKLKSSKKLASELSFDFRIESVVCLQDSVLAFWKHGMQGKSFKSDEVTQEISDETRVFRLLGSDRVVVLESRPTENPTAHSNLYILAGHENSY

[23] = tested on: Mer kinase Ba/F3 xenograft; conditions: 200 mg/kg, ref McCoull et al. [2021]; cited from earlier work
[24] = tested on: retina; conditions: mouse, cited from earlier work
[25] = animals 13-15, 200 mg/kg BID 28 days

Axl enzyme (pIC50) [1]: 7.9
Axl cell (pIC50) ([1]; Cos-7 cell): 7.0
Flt3 enzyme (pIC50) [2]: < 4.5/ < 4.5
Flt3 cell (pIC50) ([2]; Cos-7 cell): < 4.5/ < 4.5
Mer enzyme (pIC50) [3]: 9.0
Mer cell (pIC50) ([3]; Cos-7 cell): 7.7 and 7.8
Efferocytosis (pIC50) [4]: 7.6
LogD7.4 [5]: 2.9
Solubility [6]: 938 µM (≈ 527 µg/mL)
Human PPB (% free) [7]: 14 % free
Mouse PPB (% free) [8]: 7.6 % free
HLM CLint [9]: 195 µL/min/mg protein
CaCo2 efflux ratio [10]: 10
bioavailability ([11]; mouse): 15%
clearance ([11]; mouse): 44 mL/min/kg
volume of distribution at steady state ([11]; mouse): 3.7 L/kg
dose dependence of Cmax and AUC ([11]; up to 200 mg/kg): Dose linear increase
accumulation in plasma [12]: no accumulation was observed
average free cover over MERTK Cos-7 cell IC50 at Cmax [12]: 90 fold
average free cover over MERTK Cos-7 cell IC50 at Cmin [12]: 21 fold
difference in eye Kp, pigmented vs non-pigmented rats ([14]; assumed consequence of melanin binding): ~ ten-fold
eye partition coefficient (Kp) ([14]; non-pigmented Han Wistar rat): 2.5
eye partition coefficient (Kp) ([14]; pigmented Long Evans rat): 19
A2E (RPE marker) in the posterior part of the eye by MSI ([17]; animal no. 14 compared to animals no. 13 and 15): dramatic decrease
Total concentration in the anterior region of the eye (QMSI) [17, 25]: ~ 11 µM
Total concentration in the posterior region of the eye (QMSI) [17, 25]: ~ 9 µM
Total concentration in the whole eye (QMSI) [17, 25]: ~ 3 µM
inhibition of MERTK in kinome profiling [20]: > 90%
inhibition of AXL in kinome profiling [21]: > 90%
inhibition of MAP4K5 (KHS1) in kinome profiling [22]: > 75%
Structure (SMILES): Cc1cc(-c2c(C)nn(C)c2C)cnc1-c1nnc(N(C)Cc2ccc3ncc(-c4ccc(CN(C)C)cc4)n3c2)o1 [AZ14145845]
weight gain above baseline [13]: 3–6%
Total of any retinal degeneration/atrophy (of number examined) ([15]; 200 mg/kg BID, 28 days, one eye per mouse): 4 of 8
length of the retina affected by focal lesion ([15]; animal no. 10, lesion midway between optic nerve and peripheral limit): approximately 25%
extent of retina affected ([15]; animal no. 14, most severe microscopic changes): entire length of retina
length of the retina affected by focal lesions ([15]; animal numbers 8 and 9, lesions towards the periphery of the retina): approximately 20%
Number of animals with no H&E findings ([15]; n = 8 treated mice, 200 mg/kg BID, 28 days, one eye per mouse, 200 mg/kg): four of the eight and 4
Moderate retinal degeneration/atrophy (number of animals) ([15]; n = 8 treated mice, diffuse distribution, animal 14): 1 with diffuse distribution
Minimal retinal degeneration/atrophy (number of animals) ([15]; n = 8 treated mice, focal distribution, animals 8, 9, 10): 3 with focal distribution
ultra-structural findings by TEM [16]: ultra-structural changes at the interface between the POS and the RPE
ocular distribution by MSI ([17]; whole eye sections, 20 µm spatial resolution): largely localized in the pigmented retinal tissues of the RPE and choroid layers
drop in the number of internalized POS [18]: ~60%
IC50 [19]: 5.7 µM
efficacy in xenograft tumor model [23]: showed efficacy

Structure (SMILES): CCCCNc1ncc2c(-c3ccc(F)cc3)nn(CC3CCC(N)CC3)c2n1 (stereo not shown) [UNC-569]
electron microscopic evaluation of the retina ([24]; in vivo): accumulation of membrane-bound multi-lamellated bodies in the RPE cells
microscopic examination of H&E-stained tissue sections of the eye ([24]; in vivo): No changes were detected
duration of inhibition of MERTK phosphorylation in retinal tissue ([24]; post oral administration, ref Sayama et al. [2018]): up to 17 h
